Data taken from patent US5001154A, “Fervescence composition” (K.K. Ueno Seiyaku Oyo Kenkyujo, priority 1987, dated 1991).

Legend:
[1] = in vivo; cited from earlier work
acute toxicity (LD50) = conditions: mouse, in vivo; mice, intravenous injection
Source text: Acute toxicity (LD50) of the test drugs was estimated on Slc-ddY female mice (5-weeks old) by an intravenous injection.

[2] = fervescence activity by intracerebroventricular injection (rising of body temperature); assay type: in vivo, Wister male rats; conditions: 400 ng in 3 μl into lateral ventricle, urethane-anesthetized rats, rectal temperature
Protocol: fervescence activity by intracerebroventricular injection
Wister male rats (8 weeks old) were used as test animals.
Rats were applied to anesthesia by intraperitoneal injection with 1.25 g/kg of urethane and a stainless guide cannula was inserted into the lateral ventricle for administration of a test drug according to Pellegrino's Rat brain atras.
Each test drug was dissolved into an artificial cerebrospinal fluid and 400 ng as drug in 3 μl was injected through the injection cannula for 15 seconds. The artificial cerebrospinal fluid alone was injected as control. Body temperature was measured continuously at the rectum. Rising of body temperature is shown by the rising degree (°C.) from the temperature before administration.

[3] = fervescence activity by intravenous injection (rising of body temperature), 1 mg/kg; assay type: in vivo, Wister male rats; conditions: 1 mg/kg intravenous, urethane-anesthetized rats
Protocol: fervescence activity by intravenous injection Test animals were Wister male rats (8 weeks old) weighing 200±10 g. The rats were applied to anesthesia by intraperitoneal injection of 1.25 g/kg of urethane. Each test drug was dissolved into ethyl alcohol. The ethyl alcohol solution was diluted with Ringer's solution at least 50 times just before use and 1 mg/kg of the each test drug was intravenously administered. Body temperature was measured in the same manner as in Example 1. Ringer's solution containing ethyl alcohol was administered as control. Rising of body temperature is shown by the rising degree (°C.) from the temperature before administration.

[4] = sedation activity and rising of body temperature in dog; assay type: in vivo, hybrid adult dog; conditions: intravenous
Source text: Sedation Activity A 19-methyl type compound having strong fervescence activity was compared with PGE2 […] sedation activity. A hybrid adult dog was held on a holder for dog and intravenously administered with a test drug dissolved in Ringer's solutions at the forefoot. Sedation activity was judged as follows: Sedation Degree 1: Disappearance of body movement 2: Closing of the eyes 3: Leaning on the holding belt

[5] = fervescence (recovery of body temperature) activity at hemorrhage load; assay type: in vivo, Wister male rats; conditions: rat loaded with hemorrhage
Protocol: fervescence (recovery of body temperature) activity at hemorrhage load
Wister male rats (weight: 200 g) were subcutaneously injected on the back with 1.5 g/kg of urethane, subjected to anesthesia. Hemorrhage was then induced by withdrawal of blood by puncture of the heart for the total volume of 3 ml equivalent to 1.5% of the body weight. After kept in a room for 60 minutes, the rats were administered intravenously with test solutions prepared by dissolving test drugs into Ringer's solution so as to administer the rat at a dose of 0.5 or 1 mg/kg, and change of the body temperature was observed. Ringer's solution was administered as control.
In the figures, (1), (2) and (3) correspond to the results of administration of doses 1 mg/kg, 0.5 mg/kg and Ringer's solution alone, respectively.

[6] = fervescence activity by intravenous injection (rising of body temperature), 5 mg/kg; assay type: in vivo, Wister male rats; conditions: 5 mg/kg intravenous, urethane-anesthetized rats
Protocol: Test animals were Wister male rats (8 weeks old) weighing 200±10 g. The rats were applied to anesthesia by intraperitoneal injection of 1.25 g/kg of urethane. Each test drug was dissolved into ethyl alcohol. The ethyl alcohol solution was diluted with Ringer's solution at least 50 times just before use and 1 mg/kg of the each test drug was intravenously administered. Body temperature was measured in the same manner as in Example 1.
Ringer's solution containing ethyl alcohol was administered as control. Rising of body temperature is shown by the rising degree (°C.) from the temperature before administration.
Experiment was carried out in the same manner as in Example 2 except for that test drugs were administered intravenously with a dose of 5 mg/kg.

Row | SMILES | LD50 (acute toxicity (LD50)) [mg/kg] | Rising of Body Temperature [2] | Rising of Body Temperature [3] | Rising of Body Temperature [6] | also measured
1 | CCCCC[C@H](O)/C=C/[C@H]1[C@H](O)CC(=O)[C@@H]1C/C=C\CCCC(=O)O [Test drug 58, PGE2] | – | – | – | – | blood pressure (known) [1]: strongly decreases the blood pressure; fervescence activity (known) [1]: known to have fervescence activity
2 | CCCCCC(=O)CC[C@H]1[C@H](O)CC(=O)[C@@H]1CCCCCCC(=O)OCC [compound 2] | > 1000 | +0.4 °C | +0.9 °C | – | –
3 | CCOC(=O)CCCCC(=O)C[C@H]1C(=O)C[C@@H](O)[C@@H]1CCC(=O)CCCC(C)C [compound 16] | > 300 | – | +0.8 °C | – | Rising of Body Temperature ([4]; 0.5 mg/kg): 1.1 °C; Rising of Body Temperature ([5]; 0.5 mg/kg intravenous): +0.4 °C; Rising of Body Temperature ([5]; 1 mg/kg intravenous): +0.6 °C
4 | CCCCCC(=O)CC[C@H]1[C@H](O)CC(=O)[C@@H]1C/C=C\CCCC(=O)OC [compound 23] | > 1000 | +0.4 °C | +1.0 °C | – | –
5 | CCCCCC(=O)CC[C@H]1[C@H](O)CC(=O)[C@@H]1C/C=C\CCCC(=O)OCC [compound 24] | 1000 | +0.5 °C | +0.5 °C | – | Rising of Body Temperature ([5]; 0.5 mg/kg intravenous): +0.8 °C; Rising of Body Temperature ([5]; 1 mg/kg intravenous): +1.1 °C
6 | CCCCCC(=O)CC[C@H]1[C@H](O)CC(=O)[C@@H]1C/C=C\CCCC(=O)OCCC [compound 25] | – | – | +0.2 °C | +1.3 °C | –
7 | CCCCCC(=O)CC[C@H]1[C@H](O)CC(=O)[C@@H]1C/C=C\CCCC(=O)OCCCC [compound 26] | – | +0.1 °C | +0.2 °C | +0.9 °C | –
8 | CCCCC[C@H](O)/C=C/[C@H]1[C@H](O)CC(=O)[C@@H]1C/C=C\CCCC(=O)OC [compound 59] | – | – | +1.2 °C | – | Rising of Body Temperature ([4]; 0.01 mg/kg): 0.4 °C
9 | CCOC(=O)CCCCC(=O)C[C@H]1C(=O)C[C@@H](O)[C@@H]1/C=C/C(=O)CCCC(C)C [compound 62] | – | – | – | +0.63 °C | –
